Results published in ChEMBL document CHEMBL1201861, “Genomics of Drug Sensitity in Cancer screening data, Wellcome Trust Sanger Institute”.

Assays:
Assay in all cases: cells
[1] = system: KYSE-520 cell line; format: functional, cell-based; details: Homo sapiens;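 note: growth inhibition of human KYSE-520 cells, read out with a viability assay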
Description: SANGER: Inhibition of human KYSE-520 cell growth in a cell viability assay.

[2] = system: RPMI-2650; format: functional, cell-based; details: Homo sapiens
Description: SANGER: Inhibition of human RPMI-2650 cell growth in a cell viability assay.

[3] = system: SCC-4; format: functional, cell-based; details: Homo sapiens;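 note: growth inhibition of human SCC-4 cells, read out as cell viability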
Description: SANGER: Inhibition of human SCC-4 cell growth in a cell viability assay.

[4] = system: HEC-1; format: functional, cell-based; details: Homo sapiens;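 note: growth inhibition of the cell line, read out with a cell viability assay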
Description: SANGER: Inhibition of human HEC-1 cell growth in a cell viability assay.

[5] = system: SAS; format: functional, cell-based; details: Homo sapiens;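 note: growth inhibition of SAS cells, read out with a cell viability assay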
Description: SANGER: Inhibition of human SAS cell growth in a cell viability assay.

[6] = system: SAOS-2; format: functional, cell-based; details: Homo sapiens;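 note: growth inhibition of human Saos-2 cells determined by a cell viability assay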
Description: SANGER: Inhibition of human Saos-2 cell growth in a cell viability assay.

[7] = system: SK-MEL-28; format: functional, cell-based; details: Homo sapiens;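 note: growth inhibition of human SK-MEL-28 cells, read out with a cell viability assay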
Description: SANGER: Inhibition of human SK-MEL-28 cell growth in a cell viability assay.

[8] = system: LU-99A; format: functional, cell-based; details: Homo sapiens;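 note: growth inhibition of LU-99A cells, read out with a cell viability assay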
Description: SANGER: Inhibition of human LU-99A cell growth in a cell viability assay.

[9] = system: 5637; format: functional, cell-based; details: Homo sapiens
Description: SANGER: Inhibition of human 5637 cell growth in a cell viability assay.

[10] = system: PC-3; format: functional, cell-based; details: Homo sapiens;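 note: cell viability assay measuring growth inhibition of PC-3 cells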
Description: SANGER: Inhibition of human PC-3 cell growth in a cell viability assay.

[11] = system: G-402; format: functional, cell-based; details: Homo sapiens
Description: SANGER: Inhibition of human G-402 cell growth in a cell viability assay.

[12] = system: JEG-3; format: functional, cell-based; details: Homo sapiens;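 note: growth inhibition of human JEG-3 cells, read out with a cell viability assay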
Description: SANGER: Inhibition of human JEG-3 cell growth in a cell viability assay.

[13] = system: NCI-H441; format: functional, cell-based; details: Homo sapiens;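 note: growth inhibition of NCI-H441 cells, read out with a cell viability assay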
Description: SANGER: Inhibition of human NCI-H441 cell growth in a cell viability assay.

[14] = system: S-117; format: functional, cell-based; details: Homo sapiens
Description: SANGER: Inhibition of human S-117 cell growth in a cell viability assay.

[15] = system: KYSE-410; format: functional, cell-based; details: Homo sapiens;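 note: growth inhibition of KYSE-410 cells, measured through a cell viability readout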
Description: SANGER: Inhibition of human KYSE-410 cell growth in a cell viability assay.

[16] = system: NCI-H661; format: functional, cell-based; details: Homo sapiens;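 note: cell viability assay read-out, IC50 being the concentration that inhibits growth of the cells by half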
Description: SANGER: Inhibition of human NCI-H661 cell growth in a cell viability assay.

[17] = system: A-375; format: functional, cell-based; details: Homo sapiens;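 note: growth inhibition of A375 cells, read out with a cell viability assay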
Description: SANGER: Inhibition of human A375 cell growth in a cell viability assay.

[18] = system: IGROV-1; format: functional, cell-based; details: Homo sapiens;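 note: reduction of IGROV-1 cell growth, read out with a viability assay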
Description: SANGER: Inhibition of human IGROV-1 cell growth in a cell viability assay.

[19] = system: MKN-28; format: functional, cell-based; details: Homo sapiens;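 note: cell viability assay read-out, IC50 reflects suppression of growth of human MKN-28 cells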
Description: SANGER: Inhibition of human MKN28 cell growth in a cell viability assay.

[20] = system: GP5d; format: functional, cell-based; details: Homo sapiens;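 note: growth inhibition of human GP5d cells, read out with a cell viability assay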
Description: SANGER: Inhibition of human GP5d cell growth in a cell viability assay.

[21] = system: M14; format: functional, cell-based; details: Homo sapiens;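 note: growth inhibition of M14 cells, read out with a cell viability assay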
Description: SANGER: Inhibition of human M14 cell growth in a cell viability assay.

[22] = system: Kasumi 1; format: functional, cell-based; details: Homo sapiens;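 note: growth inhibition of human Kasumi-1 cells, read out by a cell viability assay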
Description: SANGER: Inhibition of human KASUMI-1 cell growth in a cell viability assay.

[23] = system: SW626; format: functional, cell-based; details: Homo sapiens;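 note: growth inhibition of SW626 cells, measured with a cell viability assay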
Description: SANGER: Inhibition of human SW626 cell growth in a cell viability assay.

[24] = system: SW1990; format: functional, cell-based; details: Homo sapiens;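 note: cell growth inhibition determined with a viability assay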
Description: SANGER: Inhibition of human SW1990 cell growth in a cell viability assay.

[25] = system: NCI-H28; format: functional, cell-based; details: Homo sapiens;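 note: growth inhibition of human NCI-H28 cells, read out as cell viability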
Description: SANGER: Inhibition of human NCI-H28 cell growth in a cell viability assay.

[26] = system: LN-405; format: functional, cell-based; details: Homo sapiens
Description: SANGER: Inhibition of human LN-405 cell growth in a cell viability assay.

[27] = system: CHL-1; format: functional, cell-based; details: Homo sapiens;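 note: cell growth inhibition, read out with a cell viability assay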
Description: SANGER: Inhibition of human CHL-1 cell growth in a cell viability assay.

[28] = system: LK-2; format: functional, cell-based; details: Homo sapiens;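 note: growth inhibition of LK-2 cells, read out with a viability assay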
Description: SANGER: Inhibition of human LK-2 cell growth in a cell viability assay.

[29] = system: NCI-H1437; format: functional, cell-based; details: Homo sapiens;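 note: growth inhibition of human NCI-H1437 cells, read out by a cell viability assay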
Description: SANGER: Inhibition of human NCI-H1437 cell growth in a cell viability assay.

[30] = system: COLO-678; format: functional, cell-based; details: Homo sapiens
Description: SANGER: Inhibition of human COLO-678 cell growth in a cell viability assay.

[31] = system: 8505C; format: functional, cell-based; details: Homo sapiens
Description: SANGER: Inhibition of human 8505C cell growth in a cell viability assay.

[32] = system: HSC-3; format: functional, cell-based; details: Homo sapiens
Description: SANGER: Inhibition of human HSC-3 cell growth in a cell viability assay.

[33] = system: NCI-H2342; format: functional, cell-based; details: Homo sapiens;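 note: growth inhibition of the cancer cell line, determined with a cell viability assay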
Description: SANGER: Inhibition of human NCI-H2342 cell growth in a cell viability assay.

[34] = system: 639-V; format: functional, cell-based; details: Homo sapiens;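 note: growth inhibition of 639-V cells, read out with a cell viability assay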
Description: SANGER: Inhibition of human 639-V cell growth in a cell viability assay.

[35] = system: PC-14; format: functional, cell-based; details: Homo sapiens;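 note: cell viability assay measuring inhibition of PC-14 cell growth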
Description: SANGER: Inhibition of human PC-14 cell growth in a cell viability assay.

[36] = system: COR-L23; format: functional, cell-based; details: Homo sapiens;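 note: cell viability assay measuring how strongly compounds suppress growth of COR-L23 cells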
Description: SANGER: Inhibition of human COR-L23 cell growth in a cell viability assay.

[37] = system: COLO-680N; format: functional, cell-based; details: Homo sapiens;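 note: cell viability assay used to measure inhibition of COLO-680N cell growth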
Description: SANGER: Inhibition of human COLO-680N cell growth in a cell viability assay.

[38] = system: OVCAR-3; format: functional, cell-based; details: Homo sapiens;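 note: growth inhibition of human OVCAR-3 cells, determined by a cell viability assay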
Description: SANGER: Inhibition of human OVCAR-3 cell growth in a cell viability assay.

[39] = system: SW780; format: functional, cell-based; details: Homo sapiens;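 note: growth inhibition of the cells, read out with a cell viability assay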
Description: SANGER: Inhibition of human SW780 cell growth in a cell viability assay.

[40] = system: ACHN; format: functional, cell-based; details: Homo sapiens;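 note: cell viability read-out used to gauge how strongly growth of human ACHN cells is suppressed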
Description: SANGER: Inhibition of human ACHN cell growth in a cell viability assay.

[41] = system: SK-LU-1; format: functional, cell-based; details: Homo sapiens;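 note: cell viability assay measuring growth inhibition of human SK-LU-1 cells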
Description: SANGER: Inhibition of human SK-LU-1 cell growth in a cell viability assay.

[42] = system: CAMA-1; format: functional, cell-based; details: Homo sapiens;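 note: growth inhibition of CAMA-1 cells, read out with a cell viability assay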
Description: SANGER: Inhibition of human CAMA-1 cell growth in a cell viability assay.

[43] = system: 647-V; format: functional, cell-based; details: Homo sapiens;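 note: growth inhibition of 647-V cells, read out with a cell viability assay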
Description: SANGER: Inhibition of human 647-V cell growth in a cell viability assay.

[44] = system: HT-1376; format: functional, cell-based; details: Homo sapiens
Description: SANGER: Inhibition of human HT-1376 cell growth in a cell viability assay.

[45] = system: HuO9; format: functional, cell-based; details: Homo sapiens;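 note: growth inhibition of HuO9 cells, read out with a cell viability assay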
Description: SANGER: Inhibition of human HuO9 cell growth in a cell viability assay.

[46] = system: MCF7; format: functional, cell-based; details: Homo sapiens;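 note: growth inhibition of human MCF7 cells, read out with a cell viability assay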
Description: SANGER: Inhibition of human MCF7 cell growth in a cell viability assay.

[47] = system: PANC-03-27; format: functional, cell-based; details: Homo sapiens
Description: SANGER: Inhibition of human PANC-03-27 cell growth in a cell viability assay.

[48] = system: PA-1; format: functional, cell-based; details: Homo sapiens;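 note: IC50 for suppression of PA-1 cell proliferation, determined with a cell viability read-out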
Description: SANGER: Inhibition of human PA-1 cell growth in a cell viability assay.

[49] = system: LB996-RCC; format: functional, cell-based; details: Homo sapiens
Description: SANGER: Inhibition of human LB996-RCC cell growth in a cell viability assay.

[50] = system: SK-MEL3; format: functional, cell-based, SK-MEL-3; details: Homo sapiens;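 note: growth inhibition of human SK-MEL-3 cells, read out with a cell viability assay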
Description: SANGER: Inhibition of human SK-MEL-3 cell growth in a cell viability assay.

[51] = system: HCC1569; format: functional, cell-based; details: Homo sapiens;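 note: growth inhibition of human HCC1569 cells, read out with a cell viability assay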
Description: SANGER: Inhibition of human HCC1569 cell growth in a cell viability assay.

[52] = system: CAL-12T; format: functional, cell-based, Homo sapiens; details: Homo sapiens, CAL-12T;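 note: growth inhibition of human CAL-12T cells, read out with a cell viability assay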
Description: SANGER: Inhibition of human CAL-12T cell growth in a cell viability assay.

In the case of `CC[C@@]1(O)C(=O)OCc2c1cc1n(c2=O)Cc2cc3ccccc3nc2-1` [CAMPTOTHECIN], the IC50 [1] is reported as 82.6 nM, the IC50 [2] is reported as 2.22 nM and the IC50 [3] is reported as 19.3 nM. For the same compound, the IC50 [4] was 18.1 nM, the IC50 [5] was 1.24 nM and the IC50 [6] was 17.8 nM. The IC50 [7] was 17.1 nM, the IC50 [8] was 3.85 nM and the IC50 [9] was 4.18 nM. It also gave an IC50 [10] of 9.75 nM, an IC50 [11] of 24.5 nM and an IC50 [12] of 13.1 nM. For the same compound, the IC50 [13] was 28.5 nM, the IC50 [14] was 78.1 nM and the IC50 [15] was 78.1 nM. It also gave an IC50 [16] of 13.6 nM, an IC50 [17] of 3.69 nM and an IC50 [18] of 36.3 nM. For the same compound, the IC50 [19] was 51.2 nM, the IC50 [20] was 12.5 nM and the IC50 [21] was 9.95 nM. For the same compound, the IC50 [22] was 4.07 nM, the IC50 [23] was 76.9 nM and the IC50 [24] was 37.9 nM. It also gave an IC50 [25] of 38.7 nM, an IC50 [26] greater than 100 nM and an IC50 [27] of 6.09 nM. It also gave an IC50 [28] of 35.5 nM, an IC50 [29] of 34.9 nM and an IC50 [30] greater than 100 nM. It also gave an IC50 [31] of 3.3 nM, an IC50 [32] of 3.02 nM and an IC50 [33] greater than 100 nM. It also gave an IC50 [34] of 0.171 nM, an IC50 [35] of 13.6 nM and an IC50 [36] of 6.85 nM. It also gave an IC50 [37] of 72.4 nM, an IC50 [38] greater than 100 nM and an IC50 [39] of 25.8 nM. For the same compound, the IC50 [40] was 6.66 nM, the IC50 [41] was 4.71 nM and the IC50 [42] was 87.4 nM. It also gave an IC50 [43] of 0.896 nM, an IC50 [44] greater than 100 nM and an IC50 [45] of 2.88 nM. For the same compound, the IC50 [46] was 6.43 nM, the IC50 [47] was 7.1 nM and the IC50 [48] was 0.981 nM.

In the case of `Cn1c(=O)n(-c2ccc(C(C)(C)C#N)cc2)c2c3cc(-c4cnc5ccccc5c4)ccc3ncc21` [DACTOLISIB], the IC50 [1] is reported as 253 nM, the IC50 [2] is reported as 52.7 nM and the IC50 [49] is reported as 47.2 nM. For the same compound, the IC50 [3] was 71.4 nM, the IC50 [4] was 67.5 nM and the IC50 [5] was 653 nM. It also gave an IC50 [6] of 179 nM, an IC50 [7] of 112 nM and an IC50 [8] of 117 nM. For the same compound, the IC50 [9] was 79.2 nM, the IC50 [10] was 5.09 nM and the IC50 [11] was 22.2 nM. It also gave an IC50 [12] of 84.1 nM, an IC50 [13] of 895 nM and an IC50 [14] of 76.3 nM. For the same compound, the IC50 [15] was 59.5 nM, the IC50 [16] was 151 nM and the IC50 [17] was 23.9 nM. It also gave an IC50 [18] of 136 nM, an IC50 [19] of 1090 nM and an IC50 [20] of 434 nM. It also gave an IC50 [21] of 60 nM, an IC50 [23] of 176 nM and an IC50 [24] of 109 nM. It also gave an IC50 [25] of 34.4 nM, an IC50 [26] of 63.9 nM and an IC50 [27] of 15.5 nM. For the same compound, the IC50 [28] was 77.1 nM, the IC50 [29] was 80.5 nM and the IC50 [30] was greater than 2000 nM. It also gave an IC50 [31] of 37.5 nM, an IC50 [32] of 12.2 nM and an IC50 [33] of 590 nM. For the same compound, the IC50 [34] was 85.4 nM, the IC50 [35] was 46.6 nM and the IC50 [36] was 49.2 nM. For the same compound, the IC50 [37] was 111 nM, the IC50 [38] was 599 nM and the IC50 [39] was 23.1 nM. It also gave an IC50 [40] of 357 nM, an IC50 [41] of 26.2 nM and an IC50 [42] of 9.8 nM. For the same compound, the IC50 [50] was 148 nM, the IC50 [43] was 78.1 nM and the IC50 [44] was 385 nM. For the same compound, the IC50 [45] was 26.8 nM, the IC50 [46] was 48.6 nM and the IC50 [47] was 76.3 nM. It also gave an IC50 [51] of 276 nM, an IC50 [52] of 38.6 nM and an IC50 [48] of 11.8 nM.

With `CCCS(=O)(=O)Nc1ccc(F)c(C(=O)c2c[nH]c3ncc(Cl)cc23)c1F` [PLX-4720] the IC50 [1] was greater than 10000 nM, the IC50 [2] was greater than 10000 nM and the IC50 [49] was greater than 10000 nM. For the same compound, the IC50 [3] was greater than 10000 nM, the IC50 [4] was greater than 10000 nM and the IC50 [5] was greater than 10000 nM. For the same compound, the IC50 [6] was greater than 10000 nM, the IC50 [7] was 1050 nM and the IC50 [8] was greater than 10000 nM. For the same compound, the IC50 [9] was greater than 10000 nM, the IC50 [10] was greater than 10000 nM and the IC50 [11] was greater than 10000 nM. For the same compound, the IC50 [12] was greater than 10000 nM, the IC50 [13] was greater than 10000 nM and the IC50 [14] was greater than 10000 nM. It also gave an IC50 [15] greater than 10000 nM, an IC50 [16] greater than 10000 nM and an IC50 [17] of 674 nM. For the same compound, the IC50 [18] was greater than 10000 nM, the IC50 [19] was greater than 10000 nM and the IC50 [20] was greater than 10000 nM. For the same compound, the IC50 [21] was 218 nM, the IC50 [23] was greater than 10000 nM and the IC50 [24] was greater than 10000 nM. The IC50 [25] was greater than 10000 nM, the IC50 [26] was greater than 10000 nM and the IC50 [27] was 5980 nM. The IC50 [28] was greater than 10000 nM, the IC50 [29] was greater than 10000 nM and the IC50 [30] was greater than 10000 nM. For the same compound, the IC50 [31] was greater than 10000 nM, the IC50 [32] was 8070 nM and the IC50 [33] was greater than 10000 nM. It also gave an IC50 [34] greater than 10000 nM, an IC50 [35] greater than 10000 nM and an IC50 [36] greater than 10000 nM. For the same compound, the IC50 [37] was greater than 10000 nM, the IC50 [38] was greater than 10000 nM and the IC50 [39] was greater than 10000 nM. The IC50 [40] was greater than 10000 nM, the IC50 [41] was greater than 10000 nM and the IC50 [42] was greater than 10000 nM. For the same compound, the IC50 [50] was 516 nM, the IC50 [43] was greater than 10000 nM and the IC50 [44] was greater than 10000 nM. For the same compound, the IC50 [45] was greater than 10000 nM, the IC50 [46] was greater than 10000 nM and the IC50 [47] was greater than 10000 nM. The IC50 [51] was greater than 10000 nM, the IC50 [52] was greater than 10000 nM and the IC50 [48] was 2730 nM.
